# Results published in ChEMBL document CHEMBL5104190, “Design, Synthesis, Biological Activity, and Structural Analysis of Novel Des-C-Ring and Aromatic-D-Ring Analogues of 1α,25-Dihydroxyvitamin D3” (J Med Chem, 2022).
# The source made the active and inactive calls. The rule behind the calls is not given here.
# How the values were obtained:
# [1] = tested on: MCF7; experiment: Increase in E-cadherin expression level in human MCF7 cells at 0.1 to 100 nM measured for 48 hrs by Western blot analysis; format: functional, cell-based; settings: dose 0.1-100 nM
# [2] = target: T1, Vitamin D3 receptor (Homo sapiens) (UniProt P11473); experiment: Competitive binding affinity to His-tagged human VDR LBD (156 to 453 residues) expressed in Escherichia coli […] (DE3) cells at 0.1 to 100 nM in presence of 1,25D3 by fluorescent polarization assay relative to (1R,3S)-5-(2-((1R,3aS,7aR)-1-((R)-6-hydroxy-6-methylheptan-2-yl)-7a-methyloctahydro-4H-inden-4-ylidene)ethylidene)-4-methylenecyclohexane-1,3-diol; settings: dose 0.1-100 nM
# T1 sequence (whole entry): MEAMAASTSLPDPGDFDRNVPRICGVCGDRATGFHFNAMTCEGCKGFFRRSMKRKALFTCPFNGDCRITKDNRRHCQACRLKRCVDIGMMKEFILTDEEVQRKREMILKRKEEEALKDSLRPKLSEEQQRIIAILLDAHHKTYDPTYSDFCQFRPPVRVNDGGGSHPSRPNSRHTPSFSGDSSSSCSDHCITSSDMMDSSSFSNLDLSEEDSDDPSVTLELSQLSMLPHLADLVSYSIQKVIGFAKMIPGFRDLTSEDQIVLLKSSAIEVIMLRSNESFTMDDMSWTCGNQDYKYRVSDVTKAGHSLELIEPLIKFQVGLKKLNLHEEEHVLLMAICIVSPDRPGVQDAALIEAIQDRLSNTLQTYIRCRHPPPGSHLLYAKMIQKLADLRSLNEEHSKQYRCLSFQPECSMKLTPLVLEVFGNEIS
# [3] = target: T2, Vitamin D3 receptor (Homo sapiens, UniProt P11473); experiment: Competitive binding affinity to His-tagged human VDR LBD (156 to 453 residues) expressed in Escherichia coli […] (DE3) cells in presence of 1,25D3 by fluorescent polarization assay
# T2 sequence (P11473 whole entry): T1 sequence (whole entry)
# [4] = target: T3, CYP24A1 (Homo sapiens, UniProt Q07973); experiment: Induction of CYP24A1 (unknown orgin) transcriptional activity trasfected in human MCF7 cells at 0.1 to 1000 nM incuabted for 48 hrs by luciferase reporter gene assay relative to (1R,3S)-5-(2-((1R,3aS,7aR)-1-((R)-6-hydroxy-6-methylheptan-2-yl)-7a-methyloctahydro-4H-inden-4-ylidene)ethylidene)-4-methylenecyclohexane-1,3-diol; format: ADME, cell-based; settings: MCF7 cells transfected with CYP24A1 luciferase reporter, dose 0.1-1000 nM
# T3 sequence (Q07973 whole entry): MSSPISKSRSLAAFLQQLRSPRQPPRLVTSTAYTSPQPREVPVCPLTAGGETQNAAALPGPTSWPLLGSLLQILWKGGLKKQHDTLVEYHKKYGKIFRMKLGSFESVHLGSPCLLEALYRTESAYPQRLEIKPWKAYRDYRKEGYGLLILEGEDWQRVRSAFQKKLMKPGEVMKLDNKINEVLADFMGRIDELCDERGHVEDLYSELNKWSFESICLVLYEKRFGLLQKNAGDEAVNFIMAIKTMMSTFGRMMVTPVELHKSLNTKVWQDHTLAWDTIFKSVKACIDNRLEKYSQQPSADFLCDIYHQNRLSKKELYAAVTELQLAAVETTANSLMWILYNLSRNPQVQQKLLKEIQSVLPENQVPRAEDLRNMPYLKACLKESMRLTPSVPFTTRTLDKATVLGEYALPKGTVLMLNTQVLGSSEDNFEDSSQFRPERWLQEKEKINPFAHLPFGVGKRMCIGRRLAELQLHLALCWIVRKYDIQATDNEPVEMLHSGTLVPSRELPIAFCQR
SMILES,Activity [1],Emax [2] [%],IC50 [3] [nM],Emax at 48 h [4] [%]
C=C1/C(=C\C=C(/CCCCCC(C)(C)O)c2cccc(CCCCCC(C)(C)O)c2)C[C@@H](O)C[C@@H]1O,Active,4.5,27.3,54
C=C1/C(=C\C=C\c2cc(CCCCCC(C)(C)O)cc(CCCCCC(C)(C)O)c2)C[C@@H](O)C[C@@H]1O,Active,7.9,15.7,102
